The test system of one experiment is H1975 cells. Description: Cell proliferation and growth inhibition assay (CCK-8) in H1975. It is filed as cell-based. The conditions noted are these: Homo sapiens, NCI-H1975, 72 h, treated with test compounds for 72 hrs, CCK-8 viability, read-out: EGFR IC50 in H1975. As to the method: MV-4-11 and H1975 cells were obtained from the American Type Culture Collection and KM12-luc cells were obtained from JCRB Cell Bank. All cell lines were maintained at 37° C. with 5% C02, in media supplemented with 10% fetal bovine serum and penicillin (100 units/mL) and streptomycin (100 μg/mL). MV-4-11 cells were maintained in Iscove's Modified Dubecco's Medium, H1975 cells were cultured with RPMI 1640 media, and KM12-luc cells were maintained in Dulbecco's Modification of Eagle's Medium. CCK-8 reagent was obtained from Yeasen.
Cell proliferation was assessed by CCK-8 assay (Yeasen) per the manufacturer's instructions. The MV-4-11 (AML), H1975, and KM12-luc cells were seeded at 30,000, 3,000 and 2,500 cells per well onto 96-well plates, and after a 24 h incubation, the cells were treated with test compounds for 72 hrs. Cell viability was assayed by incubating the cells with CCK-8 reagent for 1-4 hrs. Absorbance was measured at OD450 using the Beckman DTX880. The data was calculated using GraphPad Prism version 6.01. The IC50 values were fitted using a non-linear regression model with a sigmoidal dose response.

The subject of another experiment is KM12-luc cells. Nature of the experiment: Cell proliferation and growth inhibition assay (CCK-8) in KM12-luc. It is filed as cell-based. Particulars: KM12-luc cells, treated with test compounds for 72 hrs, CCK-8 viability, read-out: NTRK IC50 in KM12-luc. A digest of the protocol: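 Cells were grown at 37 °C, 5% CO2 with 10% FBS: MV-4-11 in IMDM, H1975 in RPMI 1640, KM12-luc in DMEM. Viability was read by CCK-8 (1-4 hrs reagent incubation, absorbance at OD450). IC50 came from a non-linear sigmoidal dose-response fit.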

Read-outs that look alike come from different tables or passages of the source.

What is called IC50 is the concentration at which inhibition is half-maximal.

On to `CCC(=O)Nc1cc(Nc2nc(-c3c[nH]c4c(OC)cccc34)c3cc[nH]c3n2)ccc1N(C)CCN(C)C` [Compound 518, N-(2-((2-(dimethylamino)ethyl)(methyl)amino)-5-((4-(7-methoxy-1H-indol-3-yl)-7H-pyrrolo[2,3-d]pyrimidin-2-yl)amino)phenyl)propionamide], for which, in the experiment with H1975 cells, the half-maximal inhibitory concentration (IC50) was 406 nM.
As to `CN(C)CCN(C)c1ccc(Nc2ncc(F)c(-c3c[nH]c4c(F)cccc34)n2)cc1N` [Compound 520, N^1-(2-(dimethylamino)ethyl)-N^4-(5-fluoro-4-(7-fluoro-1H-indol-3-yl)pyrimidin-2-yl)-N-methylbenzene-1,2,4-triamine], in the experiment on H1975 cells, the IC50 was 1180 nM.
The same measure, in the same setting: the same measure for `CC(=O)Nc1cc(Nc2ncc(F)c(-c3c[nH]c4c(F)cccc34)n2)ccc1N(C)CCN(C)C` [Compound 521, N-(2-((2-(dimethylamino)ethyl)(methyl)amino)-5-((5-fluoro-4-(7-fluoro-1H-indol-3-yl)pyrimidin-2-yl)amino)phenyl)acetamide]: 695 nM.
Consider `CCC(=O)Nc1cc(Nc2ncc(F)c(-c3c[nH]c4c(F)cccc34)n2)ccc1N(C)CCN(C)C` [Compound 522, N-(2-((2-(dimethylamino)ethyl)(methyl)amino)-5-((5-fluoro-4-(7-fluoro-1H-indol-3-yl)pyrimidin-2-yl)amino)phenyl)propionamide], for which, in the experiment with H1975 cells, the IC50 turned out to be 999 nM.
For `Cc1cccc2c(-c3nc(Nc4ccc(N(C)CCN(C)C)c(N)c4)ncc3F)c[nH]c12` [Compound 524, N^1-(2-(dimethylamino)ethyl)-N^4-(5-fluoro-4-(7-methyl-1H-indol-3-yl)pyrimidin-2-yl)-N^1-methylbenzene-1,2,4-triamine], the IC50 in the experiment with H1975 cells was 425 nM.
Still for that read-out and setting: the same measure for `CC(=O)Nc1cc(Nc2ncc(F)c(-c3c[nH]c4c(C)cccc34)n2)ccc1N(C)CCN(C)C` [Compound 525, N-(2-((2-(dimethylamino)ethyl)(methyl)amino)-5-((5-fluoro-4-(7-methyl-1H-indol-3-yl)pyrimidin-2-yl)amino)phenyl)acetamide]: 406 nM; for `CCC(=O)Nc1cc(Nc2ncc(F)c(-c3c[nH]c4c(C)cccc34)n2)ccc1N(C)CCN(C)C` [Compound 526, N-(2-((2-(dimethylamino)ethyl)(methyl)amino)-5-((5-fluoro-4-(7-methyl-1H-indol-3-yl)pyrimidin-2-yl)amino)phenyl)propionamide]: 656 nM.
On the same count and under the same terms, the same measure for `COc1cccc2c(-c3nc(Nc4ccc(N(C)CCN(C)C)c(N)c4)ncc3F)c[nH]c12` [Compound 528, N^1-(2-(dimethylamino)ethyl)-N^1-methyl-N^4-(5-fluoro-4-(7-methoxy-1H-indol-3-yl)pyrimidin-2-yl)benzene-1,2,4-triamine]: 298 nM; for `COc1cccc2c(-c3nc(Nc4ccc(N(C)CCN(C)C)c(NC(C)=O)c4)ncc3F)c[nH]c12` [Compound 529, N-(2-((2-(dimethylamino)ethyl)(methyl)amino)-5-((5-fluoro-4-(7-methoxy-1H-indol-3-yl)pyrimidin-2-yl)amino)phenyl)acetamide]: 958 nM; for `CCC(=O)Nc1cc(Nc2ncc(F)c(-c3c[nH]c4c(OC)cccc34)n2)ccc1N(C)CCN(C)C` [Compound 530, N-(2-((2-(dimethylamino)ethyl)(methyl)amino)-5-((5-fluoro-4-(7-methoxy-1H-indol-3-yl)pyrimidin-2-yl)amino)phenyl)propionamide]: 769 nM.
For `CC(=O)Nc1cc(Nc2ncc(Cl)c(-c3cn(C)c4c(C)cccc34)n2)ccc1N1CC[C@@H](N(C)C)C1` [Compound R-432, (R)—N-(5-((5-chloro-4-(1,7-dimethyl-1H-indol-3-yl)pyrimidin-2-yl)amino)-2-(3-(dimethylamino)pyrrolidin-1-yl)phenyl)acetamide], the IC50 in the experiment on KM12-luc cells (KM12-Luc, 72 h) is 130 nM.
With `COc1cccc2c(-c3nc(Nc4ccc(N5CC[C@@H](N(C)C)C5)c(N)c4)ncc3Cl)cn(C)c12` [Compound R-439, (R)—N^1-(5-chloro-4-(7-methoxy-1-methyl-1H-indol-3-yl)pyrimidin-2-yl)-4-(3-(dimethylamino)pyrrolidin-1-yl)benzene-1,3-diamine], the IC50 in the experiment on KM12-luc cells came out at 128 nM.
Turning to `CN(C)[C@H]1CCN(c2ccc(Nc3ncc(C(F)(F)F)c(-c4c[nH]c5c(F)cccc45)n3)cc2N)C1` [Compound S-345, (S)-4-(3-(dimethylamino)pyrrolidin-1-yl)-N^1-(4-(7-fluoro-1H-indol-3-yl)-5-(trifluoromethyl)pyrimidin-2-yl)benzene-1,3-diamine], the IC50 in the experiment on KM12-luc cells (KM12-Luc, 72 h) was determined as 8.2 nM.
Same read-out and setting: as for `CC(=O)Nc1cc(Nc2ncc(C(F)(F)F)c(-c3cn(C)c4c(F)cccc34)n2)ccc1N1CC[C@H](N(C)C)C1` [Compound S-353, (S)—N-(2-(3-(dimethylamino)pyrrolidin-1-yl)-5-((4-(7-fluoro-1-methyl-1H-indol-3-yl)-5-(trifluoromethyl)pyrimidin-2-yl)amino)phenyl)acetamide], the figure is 35.2 nM.
Still for that read-out and setting: the same measure for `CN(C)[C@H]1CCN(c2ccc(Nc3ncc(C(F)(F)F)c(-c4cn(C)c5c(F)cccc45)n3)cc2N)C1` [Compound S-354, (S)-4-(3-(dimethylamino)pyrrolidin-1-yl)-N^1-(4-(7-fluoro-1-methyl-1H-indol-3-yl)-5-(trifluoromethyl)pyrimidin-2-yl)benzene-1,3-diamine]: 56.3 nM.
On to `Cc1cccc2c(-c3nc(Nc4ccc(N5CC[C@H](N(C)C)C5)c(N)c4)ncc3C(F)(F)F)c[nH]c12` [Compound S-367, (S)-4-(3-(dimethylamino)pyrrolidin-1-yl)-N^1-(4-(7-methyl-1H-indol-3-yl)-5-(trifluoromethyl)pyrimidin-2-yl)benzene-1,3-diamine], for which the IC50 in the experiment with KM12-luc cells (KM12-Luc, 72 h) turned out to be 4.6 nM.
For `COc1cccc2c(-c3ncc(C(F)(F)F)c(Nc4ccc(N5CC[C@H](N(C)C)C5)c(NC(C)=O)c4)n3)c[nH]c12` [Compound S-382b, (S)—N-(2-(3-(dimethylamino)pyrrolidin-1-yl)-5-((2-(7-methoxy-1H-indol-3-yl)-5-(trifluoromethyl)pyrimidin-4-yl)amino)phenyl)acetamide], the IC50 with KM12-luc cells (KM12-Luc, 72 h) turned out to be 349 nM.
Turning to `COc1cccc2c(-c3nc(Nc4ccc(N5CC[C@H](N(C)C)C5)c(N)c4)ncc3C(F)(F)F)cn(C)c12` [Compound S-390, (S)-4-(3-(dimethylamino)pyrrolidin-1-yl)-N^1-(4-(7-methoxy-1-methyl-1H-indol-3-yl)-5-(trifluoromethyl)pyrimidin-2-yl)benzene-1,3-diamine], in the experiment on KM12-luc cells (KM12-Luc, 72 h), the IC50 worked out at 44.6 nM.
Still for that read-out and setting: as for `CC(=O)Nc1cc(Nc2ncc(Cl)c(-c3c[nH]c4c(F)cccc34)n2)ccc1N1CC[C@H](N(C)C)C1` [Compound S-409, (S)—N-(5-((5-chloro-4-(7-fluoro-1H-indol-3-yl)pyrimidin-2-yl)amino)-2-(3-(dimethylamino)pyrrolidin-1-yl)phenyl)acetamide], the figure is 24.6 nM; as for `CN(C)[C@H]1CCN(c2ccc(Nc3ncc(Cl)c(-c4c[nH]c5c(F)cccc45)n3)cc2N)C1` [Compound S-414, (S)—N^1-(5-chloro-4-(7-fluoro-1H-indol-3-yl)pyrimidin-2-yl)-4-(3-(dimethylamino)pyrrolidin-1-yl)benzene-1,3-diamine], 50.1 nM; as for `CC(=O)Nc1cc(Nc2ncc(Cl)c(-c3cn(C)c4c(F)cccc34)n2)ccc1N1CC[C@H](N(C)C)C1` [Compound S-415, (S)—N-(5-((5-chloro-4-(7-fluoro-1-methyl-1H-indol-3-yl)pyrimidin-2-yl)amino)-2-(3-(dimethylamino)pyrrolidin-1-yl)phenyl)acetamide], 155 nM.
Same read-out and setting: as for `CN(C)[C@H]1CCN(c2ccc(Nc3ncc(Cl)c(-c4cn(C)c5c(F)cccc45)n3)cc2N)C1` [Compound S-420, (S)—N^1-(5-chloro-4-(7-fluoro-1-methyl-1H-indol-3-yl)pyrimidin-2-yl)-4-(3-(dimethylamino)pyrrolidin-1-yl)benzene-1,3-diamine], the figure is 261 nM.
As to `Cc1cccc2c(-c3nc(Nc4ccc(N5CC[C@H](N(C)C)C5)c(N)c4)ncc3Cl)cn(C)c12` [Compound S-431, (S)—N-(5-chloro-4-(1,7-dimethyl-1H-indol-3-yl)pyrimidin-2-yl)-4-(3-(dimethylamino)pyrrolidin-1-yl)benzene-1,3-diamine], in the experiment with KM12-luc cells, the IC50 stood at 39.6 nM.
The same measure, in the same setting: as for `CC(=O)Nc1cc(Nc2ncc(Cl)c(-c3cn(C)c4c(C)cccc34)n2)ccc1N1CC[C@H](N(C)C)C1` [Compound S-432, (S)—N-(5-((5-chloro-4-(1,7-dimethyl-1H-indol-3-yl)pyrimidin-2-yl)amino)-2-(3-(dimethylamino)pyrrolidin-1-yl)phenyl)acetamide], the figure is 22.4 nM.
For the compound `COc1cccc2c(-c3nc(Nc4ccc(N5CC[C@H](N(C)C)C5)c(N)c4)ncc3Cl)cn(C)c12` [Compound S-439, (S)—N^1-(5-chloro-4-(7-methoxy-1-methyl-1H-indol-3-yl)pyrimidin-2-yl)-4-(3-(dimethylamino)pyrrolidin-1-yl)benzene-1,3-diamine], the IC50 in the experiment on KM12-luc cells (KM12-Luc, 72 h) amounted to 150 nM.

The values above are taken from patent publication US20250136576A1, “Heterocyclic Compounds and Uses Thereof” (ACEA Therapeutics, Inc., priority 2021, published 2025).
